# Test results published in ChEMBL document CHEMBL1131804, “Synthesis of delta4-beta-D-glucopyranosiduronic acids as mimetics of 2,3-unsaturated sialic acids for sialidase inhibition” (Bioorg Med Chem Lett, 1999).
# pKi: −log10 of the molar value.
# Assays:
# [1] = Inhibitory activity against influenza virus A(N9) sialidase
# [2] = test system: Crassostrea virginica; assay: Inhibitory activity against KDN-sialidase from Crassostrea virginica at a concentration of 1 mM
# [3] = Inhibitory activity against Vibrio cholerae sialidase
# [4] = test system: influenza virus a; assay: Inhibitory activity against influenza virus A(N9) sialidase at a concentration of 0.1 mM
# [5] = test system: Clostridium perfringens; assay: Inhibitory activity against sialidase from Clostridium perfringens at a concentration of 0.1 mM
# [6] = test system: Vibrio cholerae; assay: Inhibitory activity against Vibrio cholerae sialidase at a concentration of 0.1 mM
# [7] = test system: Salmonella enterica subsp. enterica serovar Typhimurium; assay: Inhibitory activity sialidase from Salmonella Typhimurium at a concentration of 0.1 mM
SMILES,pKi [1],inhibition [2] [%],pKi [3],inhibition [4] [%],inhibition [5] [%],inhibition [6] [%],inhibition [7] [%]
CC(=O)N[C@H]1[C@H]([C@H](O)[C@H](O)CO)OC(C(=O)O)=C[C@@H]1O [NEU5AC2EN],5.89,20,5.47,,,,
CC(C)OC1OC(C(=O)O)=CC(O)C1O (stereo unspecified),,6,,,,,
O=C(O)C1=CC(O)C(O)C([C@H](O)[C@H](O)CO)O1 (stereo partly specified),,95,,,,,
CC(=O)NC1C(O)C=C(C(=O)O)OC1OC(C)C (stereo unspecified),5.57,,3.92,100,24,25,24
